Laboratory results from patent publication US20230158025A1 (UNIVERSITY OF UTAH RESEARCH FOUNDATION, priority 2020, published 2023).
Read-outs that look alike come from different tables or passages of the source.

Legend:
recombinant mouse GALK1 = recombinant mouse GALK1 (Mus musculus, UniProt Q9R0N0); assay: mGALK1 biochemical activity assay (Kinase-Glo Plus, ATP depletion)
Summary of the method: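 Recombinant GALK1 (5 nM) with 100 μM galactose; GALK1 turnover read as ATP depletion by Kinase-Glo Plus luminescence. Reaction ran 1 h at room temperature before detection reagent was added.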

[1] = rat microsomal stability (RLM)
recombinant human GALK1 = recombinant human GALK1 (Homo sapiens, UniProt P51570); assay: hGALK1 biochemical activity assay (Kinase-Glo Plus, ATP depletion)
Summary of the method: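 Recombinant human or mouse GALK1 (5 nM, with 100 μM galactose, in the added enzyme solution) was run with ATP (35 μM in the substrate solution) in HEPES pH 8.0 buffer. Compounds were tested at 11 1/3-step concentrations from 57.4 μM to 0.97 nM. After 1 h at room temperature, remaining ATP was read by Kinase-Glo Plus luminescence.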

[2] = aqueous kinetic solubility
[3] = recombinant mouse GALK1, Kinase-Glo Plus ATP depletion, bracketed figure in the cell, e.g. (−1.2), is not defined in the text shown, read-out: mGALK
[4] = microsomal stability half-life, minutes
[5] = recombinant human GALK1, Kinase-Glo Plus ATP depletion, bracketed figure in the cell, e.g. (−1.2), is not defined in the text shown, read-out: hGALK
[6] = Tables 2-15, 35 μM ATP, 100 μM galactose, 1 h, bracketed figure after some values is undefined and not reported, read-out: mGALK IC50
[7] = Tables 2-15, 35 μM ATP, 100 μM galactose, 1 h, bracketed figure after some values (e.g. −1.2) is undefined and not reported, read-out: hGALK IC50
[8] = recombinant human GALK1, Kinase-Glo Plus ATP depletion, read-out: hGALK
[9] = recombinant mouse GALK1, Kinase-Glo Plus ATP depletion, read-out: mGALK

Sequence of recombinant mouse GALK1 (Q9R0N0 whole entry): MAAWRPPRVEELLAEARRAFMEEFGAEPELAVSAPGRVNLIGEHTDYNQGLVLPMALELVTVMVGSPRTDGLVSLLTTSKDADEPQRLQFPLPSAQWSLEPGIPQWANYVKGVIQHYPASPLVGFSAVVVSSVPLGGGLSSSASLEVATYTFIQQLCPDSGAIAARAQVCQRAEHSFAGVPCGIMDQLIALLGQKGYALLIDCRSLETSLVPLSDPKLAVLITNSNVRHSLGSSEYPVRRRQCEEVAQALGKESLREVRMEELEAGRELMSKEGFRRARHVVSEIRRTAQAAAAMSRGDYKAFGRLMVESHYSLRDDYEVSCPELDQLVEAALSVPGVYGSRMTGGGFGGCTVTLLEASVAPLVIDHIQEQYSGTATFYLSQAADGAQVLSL
Sequence of recombinant human GALK1 (P51570 whole entry): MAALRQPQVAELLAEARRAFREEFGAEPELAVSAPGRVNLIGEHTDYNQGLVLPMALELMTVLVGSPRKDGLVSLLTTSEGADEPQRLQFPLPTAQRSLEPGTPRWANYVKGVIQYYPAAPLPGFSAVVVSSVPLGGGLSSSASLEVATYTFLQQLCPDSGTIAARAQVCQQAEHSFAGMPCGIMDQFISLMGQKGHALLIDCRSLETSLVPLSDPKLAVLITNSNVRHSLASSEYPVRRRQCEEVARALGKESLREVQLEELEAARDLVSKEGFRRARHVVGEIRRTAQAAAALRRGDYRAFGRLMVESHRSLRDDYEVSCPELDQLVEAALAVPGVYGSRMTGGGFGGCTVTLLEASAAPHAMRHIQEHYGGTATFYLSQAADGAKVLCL

Structure (SMILES) | IC50 (recombinant mouse GALK1; [3]) | Metab. Stabil. (m) [1, 4] | IC50 (recombinant human GALK1; [5]) | Sol. ([2]; aqueous kinetic solubility) | Perm. (1 × 10^−6 cm/sec) (PAMPA permeability; PAMPA) | IC50 (recombinant mouse GALK1; [6]) | Metab. Stabil. (m) ([1]; microsomal stability half-life) | IC50 (recombinant human GALK1; [7]) | IC50 (recombinant human GALK1; [8]) | mGALK (μM) (recombinant mouse GALK1; recombinant mouse GALK1, Kinase-Glo Plus ATP depletion) | hGALK (μM) (recombinant human GALK1; recombinant human GALK1, Kinase-Glo Plus ATP depletion) | IC50 (recombinant mouse GALK1; [9]) | Metab. Stabil. (m) ([1]; microsomal half-life) | Sol. [2] | Perm. (1 × 10^−6 cm/sec) (PAMPA permeability)
O=C1CC(C(=O)O)CC2=C1C(c1ccccc1Cl)N=C(Nc1nc3ccccc3o1)N2 (stereo not shown) [Compound 276, 2-(benzo[d]oxazol-2-ylamino)-4-(2-chlorophenyl)-5-oxo-1,4,5,6,7,8-hexahydroquinazoline-7-carboxylic acid] | 6.85 µM | >30 m | 3.85 µM | 52.63 µg/mL | <1 1 × 10^−6 cm/sec | – | – | – | – | – | – | – | – | – | –
CCOC(=O)c1nnc(NC(=O)C2=C(C)NC(Nc3nc4ccccc4o3)=NC2c2ccccc2Cl)s1 (stereo not shown) [Compound 168, ethyl 5-(2-(benzo[d]oxazol-2-ylamino)-4-(2-chlorophenyl)-6-methyl-1,4-dihydropyrimidine-5-carboxamido)-1,3,4-thiadiazole-2-carboxylate] | – | – | – | <1 µg/mL | <2.7 1 × 10^−6 cm/sec | 10.9 µM | 3.158 m | 4.85 µM | 4.85 µM | – | – | – | – | – | –
CC1=C(C(=O)N(C)c2ccccc2)C(c2ccccc2Cl)N=C(Nc2nc3ccccc3o2)N1 (stereo not shown) [Compound 151, 2-(benzo[d]oxazol-2-ylamino)-4-(2-chlorophenyl)-N,6-dimethyl-N-phenyl-1,4-dihydropyrimidine-5-carboxamide] | – | – | – | <1 µg/mL | 203.1 1 × 10^−6 cm/sec | – | 1.176 m | – | – | in- active | in- active | – | – | – | –
COC(=O)c1ccnc(NC(=O)C2=C(C)NC(Nc3nc4ccccc4o3)=NC2c2ccccc2Cl)c1 (stereo not shown) [Compound 196, methyl 2-(2-(benzo[d]oxazol-2-ylamino)-4-(2-chlorophenyl)-6-methyl-1,4-dihydropyrimidine-5-carboxamido)isonicotinate] | – | – | – | <1 µg/mL | 27.7 1 × 10^−6 cm/sec | 5.44 µM | 18.44 m | 2.73 µM | 2.73 µM | – | – | 5.44 µM | – | – | –
CC1=C(C(=O)Nc2nncs2)C(c2n[nH]cc2Cl)N=C(Nc2nc3ccccc3o2)N1 (stereo not shown) [Compound 254, 2-(benzo[d]oxazol-2-ylamino)-4-(4-chloro-1H-pyrazol-3-yl)-6-methyl-N-(1,3,4-thiadiazol-2-yl)-1,4-dihydropyrimidine-5-carboxamide] | 54.4 µM | >30 m | 17.2 µM | 34.6 µg/mL | 37.0 1 × 10^−6 cm/sec | – | – | – | – | – | – | – | – | – | –
CC1=C(C(=O)NCc2ccccn2)C(c2ccccc2Cl)N=C(Nc2nc3ccccc3o2)N1 (stereo not shown) [Compound 220, 2-(benzo[d]oxazol-2-ylamino)-4-(2-chlorophenyl)-6-methyl-N-(pyridin-2-ylmethyl)-1,4-dihydropyrimidine-5-carboxamide] | – | – | – | 1.8 µg/mL | 1424.0 1 × 10^−6 cm/sec | – | 6.557 m | 8.63 µM | 8.63 µM | – | – | 19.3 µM | – | – | –
COC(=O)c1cccc(CNC(=O)C2=C(C)NC(Nc3nc4ccccc4o3)=NC2c2ccccc2Cl)c1 (stereo not shown) [Compound 224, methyl 3-((2-(benzo[d]oxazol-2-ylamino)-4-(2-chlorophenyl)-6-methyl-1,4-dihydropyrimidine-5-carboxamido)methyl)benzoate] | – | – | – | <1 µg/mL | 615.7 1 × 10^−6 cm/sec | 7.69 µM | 3.416 m | 4.85 µM | 4.85 µM | – | – | 7.69 µM | – | – | –
CC1=C(C(=O)Nc2ccccc2O)C(c2ccccc2Cl)N=C(Nc2nc3ccccc3o2)N1 (stereo not shown) [Compound 161, 2-(benzo[d]oxazol-2-ylamino)-N-(2-hydroxyphenyl)-4-(2-chlorophenyl)-6-methyl-1,4-dihydropyrimidine-5-carboxamide] | – | – | – | <1 µg/mL | 21.1 1 × 10^−6 cm/sec | 17.2 µM | 17.94 m | 6.85 µM | – | – | – | 17.2 µM | – | – | –
O=C1CC(C(=O)N2CCNCC2)CC2=C1C(c1ccccc1Cl)N=C(Nc1nc3ccccc3o1)N2 (stereo not shown) [Compound 282, 2-(benzo[d]oxazol-2-ylamino)-4-(2-chlorophenyl)-7-(piperazine-1-carbonyl)-4,5,6,8-tetrahydroquinazolin-5(1H)-one] | 7.69 µM | 30 m | 6.85 µM | 23.88 µg/mL | <4.7 1 × 10^−6 cm/sec | – | – | – | – | – | – | – | – | – | –
CC1=C(C(=O)NCc2cccnc2)C(c2ccccc2Cl)N=C(Nc2nc3ccccc3o2)N1 (stereo not shown) [Compound 221, 2-(benzo[d]oxazol-2-ylamino)-4-(2-chlorophenyl)-6-methyl-N-(pyridin-3-ylmethyl)-1,4-dihydropyrimidine-5-carboxamide] | – | – | – | <1 µg/mL | 1248.8 1 × 10^−6 cm/sec | – | 1.582 m | 6.85 µM | 6.85 µM | – | – | 19.3 µM | – | – | –
CC1=C(C(=O)Nc2cccc(-c3cn[nH]c3)c2)C(c2ccccc2Cl)N=C(Nc2nc3ccccc3o2)N1 (stereo not shown) [Compound 178, N-(3-(1H-pyrazol-4-yl)phenyl)-2-(benzo[d]oxazol-2-ylamino)-4-(2-chlorophenyl)-6-methyl-1,4-dihydropyrimidine-5-carboxamide] | – | – | – | <1 µg/mL | <25.4 1 × 10^−6 cm/sec | 38.5 µM | >30 m | 17.2 µM | 17.2 µM | – | – | 38.5 µM | – | – | –
COc1ccccc1CNC(=O)C1=C(C)NC(Nc2nc3ccccc3o2)=NC1c1ccccc1Cl (stereo not shown) [Compound 215, 2-(benzo[d]oxazol-2-ylamino)-4-(2-chlorophenyl)-N-(2-methoxybenzyl)-6-methyl-1,4-dihydropyrimidine-5-carboxamide] | – | – | – | <1 µg/mL | 99.3 1 × 10^−6 cm/sec | 12.2 µM | 1.4 m | 7.69 µM | 7.69 µM | – | – | 12.2 µM | – | – | –
CC1=C(C(=O)Nc2cc(N(C)C)ccn2)C(c2ccc(C)cc2Cl)N=C(Nc2nc3ccc(F)cc3o2)N1 (stereo not shown) [Compound 90, 4-(2-chloro-4-methylphenyl)-N-(4-(dimethylamino)pyridin-2-yl)-2-((6-fluorobenzo[d]oxazol-2-yl)amino)-6-methyl-1,4-dihydropyrimidine-5-carboxamide] | – | – | – | – | – | 6.85 µM | – | 4.32 µM | 4.32 µM | – | – | 6.85 µM | 17.58 m | 6.2 µg/mL | 264.3 1 × 10^−6 cm/sec
CC1=C(C(=O)Nc2nncs2)C(c2nn(C)cc2Cl)N=C(Nc2nc3ccccc3o2)N1 (stereo not shown) [Compound 253, 2-(benzo[d]oxazol-2-ylamino)-4-(4-chloro-1-methyl-1H-pyrazol-3-yl)-6-methyl-N-(1,3,4-thiadiazol-2-yl)-1,4-dihydropyrimidine-5-carboxamide] | 17.2 µM | >30 m | 7.69 µM | 12.8 µg/mL | 746.9 1 × 10^−6 cm/sec | – | – | – | – | – | – | – | – | – | –
CC1=C(C(=O)N2CCOCC2)C(c2ccccc2Cl)N=C(Nc2nc3ccccc3o2)N1 (stereo not shown) [Compound 145, (2-(benzo[d]oxazol-2-ylamino)-4-(2-chlorophenyl)-6-methyl-1,4-dihydropyrimidin-5-yl)(morpholino)methanone] | – | – | – | 15.3 µg/mL | 1046.7 1 × 10^−6 cm/sec | – | 2.1 m | – | 24.3 µM | – | – | 24.3 µM | – | – | –
CC1=C(C(=O)NCc2cnn(C)c2)C(c2ccc(F)cc2Cl)N=C(Nc2nc3cccc(N)c3o2)N1 (stereo not shown) [Compound 119, 2-((7-aminobenzo[d]oxazol-2-yl)amino)-4-(2-chloro-4-fluorophenyl)-N-((1-methyl-1H-pyrazol-4-yl)methyl)-6-methyl-1,4-dihydropyrimidine-5-carboxamide] | – | – | – | 49.6 µg/mL | 17.14 1 × 10^−6 cm/sec | – | 29.59 m | – | 0.68 µM | – | – | 6.85 µM | – | – | –
CC1=C(C(=O)NCc2cnn(CC(F)(F)F)c2)C(c2ccc(C)cc2Cl)N=C(Nc2nc3ccc(F)c(N)c3o2)N1 (stereo not shown) [Compound 131, 2-((7-amino-6-fluorobenzo[d]oxazol-2-yl)amino)-4-(2-chloro-4-methylphenyl)-6-methyl-N-((1-(2,2,2-trifluoroethyl)-1H-pyrazol-4-yl)methyl)-1,4-dihydropyrimidine-5-carboxamide] | – | – | – | 1.56 µg/mL | 193.1 1 × 10^−6 cm/sec | 3.06 µM | 18.69 m | 0.19 µM | 0.19 µM | – | – | 3.06 µM | – | – | –
CC1=C(C(=O)Nc2ccc(C#N)cn2)C(c2ccccc2Cl)N=C(Nc2nc3ccc(F)cc3o2)N1 (stereo not shown) [Compound 40, 4-(2-chlorophenyl)-N-(5-cyanopyridin-2-yl)-2-((6-fluorobenzo[d]oxazol-2-yl)amino)-6-methyl-1,4-dihydropyrimidine-5-carboxamide] | – | – | – | – | – | – | – | – | 13.7 µM | – | – | 13.7 µM | >30 m | <1 µg/mL | <7.8 1 × 10^−6 cm/sec
